Patent US20180360964A1, “PHARMACEUTICAL COMPOSITION AND A METHOD FOR PRODUCING THEREOF” (priority 2017, published 2018)
Values belong to the compound of their own block, whether it stands above or below them.

Legend:
[1] = Interaction efficiency of drugs with apatite-based matrix (HPLC); type: physicochemical; design: concentration or dose not given beside the values; conditions: for Interaction efficiency (%) of each drug with apatite-based matrix: Table 1, mean±SD, triplicate
Procedure: Apatite-based matrix as prepared above was allowed to interact with three types of drugs including cyclophosphamide (Cyp), methotrexate (Mtx) and 5-fluorouracil (5-FU) to form complexes. The complexes were then centrifuged at 13,000 rpm for 15 min and supernatant was discarded without disturbing the pellet. 100 μL of media was added to pellet to form a suspension and the suspension was used to perform high performance liquid chromatography (HPLC) analysis to estimate the concentration of drugs that could be adsorbed to the apatite-based matrix and also to evaluate the interaction efficiency of drugs with apatite-based matrix. The concentration of the drugs present in the supernatant was calculated from the peak area, using the standard curves. Data were represented as interaction efficiency (%) of drugs with apatite-based matrix, calculated using the following formula: […]
Where [X]free drug and [X]CA-drug are the concentrations of free drug and drug-loaded apatite-based matrix in the supernatant calculated form the standard curves and [X]initial is the total concentration of drugs used to perform HPLC or the total concentration initially mixed for preparation of apatite-drug formulations. Each experiment was done in triplicate and shown as mean±SD.
(7) Ca^2+ and Sr^2+ Effects of Ca^2+ and Sr^2+ on apatite-based matrix formation were analysed by adding exogenous CaCl2 and SrCl2 in apatite-based matrix fabrication respectively, while keeping other salts being constant. The size of the apatite-based matrix formed with exogenous CaCl2 and SrCl2 were measured, followed by evaluation on the interaction efficiency (%) of apatite-based matrix with drugs which is indicated in Table 2.

[2] = Cellular uptake of Dox-loaded CA NPs and CMCA NPs; type: cell-based
Text: Further, the interaction between CMCA NP and the drug i.e. doxorubicin (denoted briefly as Dox) was studied by comparing the size and binding affinity of CA NP and CMCA NP that were loaded with Dox. The positively charged DOX might bind electrostatically with negatively charged domains (rich in bicarbonate, phosphate or citrate) on CMCA NP and CA NP, causing the net charge of the DOX-loaded CMCA NPs and CA NPs more electropositive than that of the free NPs, as shown in FIGS. 28 (b) and (d). […] In addition, the evaluation on cellular uptake of Dox-loaded CA NPs and CMCA NPs was performed after 1 hour and 4 hours of treatment.

MCF7 cell line = assay: Time-dependent cellular uptake by HPLC; type: cell-based
Procedure: HPLC was performed to determine time-dependent cellular uptake (%) of pharmaceutical composition and also drug-loaded unmodified apatite-based matrix in MCF7 cell line. Apatite-based matrix was formulated with different Ca^2+ concentrations (7 mM, 8 mM and 9 mM) and 20 uM of drug. Free drug (20 uM) was used as control.

[3] = Concentration of detected drug accumulated in tumour after intravenous delivery; type: in vivo, mouse; conditions: gemcitabine accumulated in tumour, 4T1-induced breast tumour mice
Procedure: 4T1 cells were inoculated subcutaneously on the mammary pad of mice. […] The injections were intravenously administered twice within an interval of 3 days to a 4T1 cancer cells-induced syngeneic mouse model of breast cancer. Measurements on tumour volume at day 8, 10, 12, 14, 16, 18, 20 and 22 were taken. The concentration of detected drug in tumour were also measured, followed by observation on bio-distribution of drugs in each organ. Six mice per group were used and data were represented as mean±SD of tumour volume.

- Interaction efficiency (%) of each drug with apatite-based matrix [1]: 0%
- Interaction efficiency (%) of each drug with apatite-based matrix ([1]; listed as 5-fluorouracil (5-FU)): did not show any affinity
- Interaction efficiency (%) of each drug with the apatite-based matrix ([1]; matrix formed with CaCl2): 0%
- Interaction efficiency (%) of each drug with the apatite-based matrix ([1]; matrix formed with SrCl2): 1.21 ± 0.56%
SMILES: O=c1[nH]cc(F)c(=O)[nH]1 [5-FU, 5-fluorouracil]

- Detected Drug Concentration (ng/ml) [3]: 27,03333 ng/ml
SMILES: Nc1ccn([C@@H]2O[C@H](CO)[C@@H](O)C2(F)F)c(=O)n1 [Free gemcitabine, gemcitabine]
- cellular uptake (%) (MCF7 cell line; gemcitabine 20 uM, 1 h): 30.5% ± 1.2
- cellular uptake (%) (MCF7 cell line; gemcitabine 20 uM, 4 h): 50.75% ± 2.3
- cellular uptake (%) (MCF7 cell line; gemcitabine 20 uM, 24 h): 100%

- Interaction efficiency (%) of each drug with apatite-based matrix [1]: 1.73 ± 0.85%
- Interaction efficiency (%) of each drug with the apatite-based matrix ([1]; matrix formed with CaCl2): 1.73 ± 0.85%
- Interaction efficiency (%) of each drug with the apatite-based matrix ([1]; matrix formed with SrCl2): 27.76 ± 5.62%
SMILES: CN(Cc1cnc2nc(N)nc(N)c2n1)c1ccc(C(=O)N[C@@H](CCC(=O)O)C(=O)O)cc1 [Mtx, methotrexate]

Second part, the compound before the results:

SMILES: O=P1(N(CCCl)CCCl)NCCCO1 (stereo not drawn) [Cyp, cyclophosphamide]
- Interaction efficiency (%) of each drug with apatite-based matrix [1]: 13.10 ± 5.47%
- Interaction efficiency (%) of each drug with the apatite-based matrix ([1]; matrix formed with CaCl2): 13.10 ± 5.47%
- Interaction efficiency (%) of each drug with the apatite-based matrix ([1]; matrix formed with SrCl2): 11.19 ± 8.16%

SMILES: COc1cccc2c1C(=O)c1c(O)c3c(c(O)c1C2=O)C[C@@](O)(C(=O)CO)C[C@@H]3O[C@H]1C[C@H](N)[C@H](O)[C@H](C)O1 [DOX, doxorubicin]
- % Cellular uptake 1 hour of treatment ([2]; DOX 1 μM): 22.4% ± 1.73
- % Cellular uptake 4 hours of treatment ([2]; DOX 1 μM): 31.71% ± 5.92
- % Cellular uptake 1 hour of treatment ([2]; DOX 5 μM): 24.75% ± 0.14
- % Cellular uptake 4 hours of treatment ([2]; DOX 5 μM): 32.07% ± 0.82

SMILES: CC(C)(C#N)c1cc(Cn2cncn2)cc(C(C)(C)C#N)c1 [Free anastrozole, anastrozole]
- cellular uptake (%) (MCF7 cell line; anastrozole 20 uM, 1 h): 18.5% ± 2.4
- cellular uptake (%) (MCF7 cell line; anastrozole 20 uM, 4 h): 47.75% ± 2.3
- cellular uptake (%) (MCF7 cell line; anastrozole 20 uM, 24 h): 89.5% ± 3
